Data as given in patent publication US20090047655A1, “Method Of Screening Candidate Drug” (priority 2004, published 2009).
Where two headings read alike, the source gives them in different places.

Key:
CYP2D6 = experiment: in vivo; conditions: uPA(+/+)/SCID, mouse, po
Description: (§1) As for the chimeric mice, chimeric mice produced in PhoenixBio Co., Ltd. were used. To be more specific, 3 mice in which human hepatocytes were engrafted and proliferated in the mouse liver were produced by transplanting human hepatocytes (BD51, purchased from BD Gentist Inc.) into the spleen of uPA(+/+)/SCID mice, which are mice having hepatic impairment and immunodeficiency.
(§2) Paroxetine was dissolved in Milli-Q water (using a bath-type ultrasonic device) and prepared to give a final concentration of 6 mg/ml. The prepared drug was intraperitoneally administered to the mice at a dose of 5 μl/g b.w. (30 mg/kg b.w./day).
(§3) To the high-replacement chimeric mice, paroxetine was intraperitoneally administered for 3 days. Then, in the same manner as in Example 1, 5 compounds were simultaneously administered orally by gavage, the blood was collected over time, and the serum was stored.
(§4) The determination and analysis of drugs in the serum were carried out in the same manner as in Example 1.
(§5) The determined values of the drug concentration in the serum were calculated from the peak area ratio obtained by the LC-MS/MS measurement of the samples for addition calibration curve. […] From the graphs, Cmax, t1/2 and AUC were analyzed.

[1] = mouse, in vivo
Source text: (§6) As for the chimeric mice, chimeric mice produced by Hiroshima Prefectural Institute of Industrial Science and Technology or PhoenixBio Co., Ltd. were used. To be more specific, mice in which human hepatocytes were engrafted and proliferated in the mouse liver were produced by transplanting human hepatocytes (IVT079, purchased from In Vitro Technology Inc., or BD51, purchased from BD Gentest Inc.) into the spleen of uPA(+/+)/SCID mice, which are mice having hepatic impairment and immunodeficiency. Mice in which 70% or more of the mouse liver had been replaced with human hepatocytes (high-replacement chimeric mice) and low-replacement chimeric mice in which although human hepatocytes had been transplanted, the replacement ratio was almost 0%, or untransplanted mice (mice with no replacement) were used (3 mice in each group). Further, as a control, 3 uPA(−/−)/SCID mice were used.
(§7) The concentration for administration of tolbutamide which is a standard drug for CYP2C9 was […]., and 4.175 mg of tolbutamide was weighed out and suspended in 1 ml of a CMC liquid in an agate mortar, and a 4.175 mg/ml suspension which is 5 times as high as the concentration for administration was prepared.
(§8) To the high-replacement chimeric mice, low-replacement chimeric mice (or mice with no replacement) and uPA(−/−)/SCID mice (3 mice in each group), 5 compounds were simultaneously administered orally by gavage or intravenously. The blood was collected from the tail vein of each mouse in an amount of 15 μl each at 0.25 (only intravenous administration), 0.5, 1, 2, 4 (only oral administration) and 8 hours after administration. Then, the blood was centrifuged at 3,500 rpm for 5 minutes, and the serum (supernatant) was collected and stored in a freezer at −30° C.
(§9) The serum samples were transported to Sumika Chemical Analysis Service, Ltd. while keeping it in dry ice, and subjected to measurement by LC-MS/MS according to the following procedure.
(§10) With regard to a liquid chromatograph, SIL-HTC and LC-10A series (Shimadzu Corporation) were used, and as a column, Synergi 4μ Polar-RP 80A, 150 mm (length)×2.00 mm (inner diameter), 4 μm (Phenomenex Inc.) was used at 30° C. As a mobile phase, methanol/a 10 mmol/l ammonium acetate solution/acetic acid (700/300/2, v/v/v) was used, and a flow rate was set at 0.2 ml/min. An injection volume was set at 2 μl, a measurement time was set at 10 min, and the temperature of an autosampler was set at 4° C. As a mass spectrometer, Tandem Mass Spectrometer API 4000 (Applied Biosystems/MDS SCIEX Inc.) was used. As API interface, Turbo V (ESI probe) was used, and as Ionization mode, Positive ion detection mode was used.
To Eppendorf tubes in which 5 μl of samples to be measured (serum) were contained, 100 μl of methanol was added, and 10 μl of 1 μg/ml of I.S. standard solution was added thereto, and then, the mixtures were thoroughly mixed by an ultrasonic treatment and a vortex mixer. […]
(§11) The determined values of the drug concentration in the serum were calculated from the peak area ratio obtained by the LC-MS/MS measurement of the samples for addition calibration curve. […] From the graphs, the peak serum concentration (Cmax), half-life (t1/2), area under the curve (AUC), bioavailability and clearance were analyzed, and pharmacokinetics in human was predicted.

in vivo = conditions: mouse, in vivo
Source text: as §6, §7, §8, §9, §10
To Eppendorf tubes in which 5 μl of samples to be measured (serum) were contained, 100 μl of methanol was added, and 10 μl of 1 μg/ml of I.S. standard solution was added thereto, and then, the mixtures were thoroughly mixed by an ultrasonic treatment and a vortex mixer. The resulting mixtures were centrifuged (15,000 rpm, 5 min, room temperature), and the resulting supernatants were subjected to centrifugal filtration (10,000 rpm, 2 min, room temperature) with a filter, and the resulting filtrates were used as injection samples for LC-MS/MS.
as §11

CYP1A2 = CYP1A2 (Homo sapiens, UniProt P05177); experiment: Inhibition of metabolic activity by paroxetine in high-replacement chimeric mouse (marker caffeine); assay type: in vivo; conditions: paroxetine 30 mg/kg b.w./day i.p. for 3 days, donor BD51
Description: as §1, §2, §3, §4, §5

CYP3A4 = target: T1, CYP3A4 (Homo sapiens, UniProt P08684); experiment: Inhibition of metabolic activity by paroxetine in high-replacement chimeric mouse (marker erythromycin); assay type: in vivo; conditions: paroxetine 30 mg/kg b.w./day i.p. for 3 days, donor BD51
T1 construct: human hepatocytes were engrafted and proliferated in the mouse liver; host or cells: human donor hepatocytes BD51 engrafted in the liver of uPA(+/+)/SCID mice (high-replacement chimeric mice, PhoenixBio)
Description: as §1, §2, §3, §4, §5

CYP2C19 = target: T2, CYP2C19 (Homo sapiens, UniProt P33261); experiment: Inhibition of metabolic activity by paroxetine in high-replacement chimeric mouse (marker omeprazole); assay type: in vivo; conditions: paroxetine 30 mg/kg b.w./day i.p. for 3 days, donor BD51
T2 construct: human hepatocytes were engrafted and proliferated in the mouse liver; host or cells: human donor hepatocytes BD51 engrafted in the liver of uPA(+/+)/SCID mice (high-replacement chimeric mice, PhoenixBio)
Description: as §1, §2, §3, §4, §5

[2] = uPA(+/+)/SCID, po, t 1/2 Elimination phase
[3] = uPA(−/−)/SCID, iv, t 1/2 Distribution phase
[4] = uPA(−/−)/SCID, iv, t 1/2 Elimination phase

T1 sequence (P08684 whole entry): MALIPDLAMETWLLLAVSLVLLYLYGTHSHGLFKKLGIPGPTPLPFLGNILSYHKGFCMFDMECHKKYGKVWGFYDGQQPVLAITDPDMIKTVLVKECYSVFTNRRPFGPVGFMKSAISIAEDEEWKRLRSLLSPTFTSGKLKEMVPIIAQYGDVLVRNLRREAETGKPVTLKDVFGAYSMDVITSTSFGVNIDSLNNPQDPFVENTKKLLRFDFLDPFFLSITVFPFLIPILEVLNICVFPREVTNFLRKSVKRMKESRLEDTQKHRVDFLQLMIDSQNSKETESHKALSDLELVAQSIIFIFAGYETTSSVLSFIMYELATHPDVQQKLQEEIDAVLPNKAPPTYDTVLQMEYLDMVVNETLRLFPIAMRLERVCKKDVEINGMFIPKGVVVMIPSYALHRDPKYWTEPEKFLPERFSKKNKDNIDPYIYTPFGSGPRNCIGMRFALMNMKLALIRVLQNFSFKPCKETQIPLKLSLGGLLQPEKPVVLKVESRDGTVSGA
T2 sequence (P33261 whole entry): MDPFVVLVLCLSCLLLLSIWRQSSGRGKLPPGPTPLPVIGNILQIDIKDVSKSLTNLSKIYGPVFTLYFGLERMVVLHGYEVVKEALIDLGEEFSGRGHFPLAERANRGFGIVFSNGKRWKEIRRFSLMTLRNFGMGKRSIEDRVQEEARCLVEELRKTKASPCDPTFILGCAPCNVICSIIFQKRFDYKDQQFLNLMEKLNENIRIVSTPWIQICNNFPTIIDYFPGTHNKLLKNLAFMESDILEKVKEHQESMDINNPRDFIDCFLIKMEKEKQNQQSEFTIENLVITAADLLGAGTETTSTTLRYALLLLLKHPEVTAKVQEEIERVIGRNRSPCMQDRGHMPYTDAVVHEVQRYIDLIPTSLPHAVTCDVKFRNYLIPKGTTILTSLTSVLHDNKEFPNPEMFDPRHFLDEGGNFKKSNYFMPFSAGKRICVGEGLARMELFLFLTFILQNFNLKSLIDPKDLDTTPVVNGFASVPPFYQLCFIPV
Chain of CYP1A2 (P05177 whole entry): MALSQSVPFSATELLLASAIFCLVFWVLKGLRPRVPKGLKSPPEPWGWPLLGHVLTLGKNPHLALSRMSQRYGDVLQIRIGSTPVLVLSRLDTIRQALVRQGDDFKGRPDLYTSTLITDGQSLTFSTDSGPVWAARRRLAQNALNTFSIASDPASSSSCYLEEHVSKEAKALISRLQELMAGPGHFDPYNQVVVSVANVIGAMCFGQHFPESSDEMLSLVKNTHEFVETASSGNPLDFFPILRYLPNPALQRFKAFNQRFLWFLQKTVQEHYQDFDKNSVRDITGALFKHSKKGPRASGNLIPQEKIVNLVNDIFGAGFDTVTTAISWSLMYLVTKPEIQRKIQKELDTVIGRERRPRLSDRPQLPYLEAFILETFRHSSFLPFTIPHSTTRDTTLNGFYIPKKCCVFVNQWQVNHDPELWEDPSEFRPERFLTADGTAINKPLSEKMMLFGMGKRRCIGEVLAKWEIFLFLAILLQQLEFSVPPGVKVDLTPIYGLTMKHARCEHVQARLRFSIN

half-life (CYP2D6; t 1/2 Elimination phase)	AUC ([1]; uPA(+/+)/SCID)	inhibition of the metabolic activity of CYP1A2 (CYP1A2)	inhibition of the metabolic activity of CYP3A4 (CYP3A4)	inhibition of the metabolic activity of CYP2C19 (CYP2C19)	SMILES	AUC (CYP2D6)	half-life (CYP2D6; t 1/2 Distribution phase)	half-life (in vivo; [2])	AUC (in vivo; uPA(−/−)/SCID, iv, AUC)	half-life (in vivo; [3])	half-life (in vivo; [4])	AUC (in vivo; uPA(−/−)/SCID, po, AUC)	bioavailability (in vivo; uPA(−/−)/SCID, po)	Cmax (in vivo; uPA(−/−)/SCID, po)	AUC in high-replacement chimeric mice compared with low-replacement chimeric mice [1]	AUC in high-replacement chimeric mice compared with low-replacement chimeric mice (in vivo)	AUC (in vivo; uPA(+/+)/SCID, iv)	t 1/2 Distribution phase (in vivo; uPA(+/+)/SCID, iv)	AUC (in vivo; uPA(+/+)/SCID, iv, AUC)	half-life (in vivo; uPA(+/+)/SCID, iv, t 1/2 Distribution phase)
1.55 h	322 ng·h/mL				COc1ccc2[nH]c([S+]([O-])Cc3ncc(C)c(OC)c3C)nc2c1 (centres unmarked) [Omeprazole, omeprazole]	964 ng·h/mL	0.3 h	1.03 h	840 ng·h/mL	0.24 h	0.971 h	114 ng·h/mL	1.36%	94 ng/mL						
					CCCCNC(=O)NS(=O)(=O)c1ccc(C)cc1 [Tolbutamide, tolbutamide]	115000 ng·h/mL	3.31 h	4.3 h	11500 ng·h/mL	2.84 h	2.56 h	95300 ng·h/mL	82.9%	16900 ng/mL	significantly lower	significantly lower	20600 ng·h/mL	0.865^#3 hr	16800 ng·h/mL	0.982 h
		inhibition	inhibition	inhibition	Fc1ccc([C@@H]2CCNC[C@H]2COc2ccc3c(c2)OCO3)cc1 [paroxetine, Paroxetine]															
